Data from US10300065B2, “Method of treating or prevention of atherothrombotic events in patients with history of myocardial infarction” (ASTRAZENECA AB, priority 2015, dated 2019).
Like-named read-outs stand apart in the source and are kept apart here.

Legend:
[1] = tested on: patients with acute coronary syndrome; details: cited from earlier work
[2] = tested on: patients with a history of myocardial infarction
Excerpt: Any erroneously treated patients (e.g., randomized to ticagrelor but actually given placebo) were to be accounted for in the actual treatment group.
The primary efficacy endpoint was the composite of cardiovascular death, myocardial infarction, or stroke. Secondary endpoints were cardiovascular death and all-cause mortality. The analysis of secondary endpoints proceeded in a hierarchical fashion, starting with cardiovascular death and then death from any cause. Additional endpoints listed below were evaluated on an exploratory basis. Exploratory efficacy endpoints included substituting coronary heart disease death for cardiovascular death, and the additional end points of urgent coronary revascularization, unstable angina, and transient ischemic attack. The primary safety endpoint was TIMI major bleeding. Other safety endpoints included intracranial hemorrhage (ICH) and fatal bleeding. […] A central clinical events committee whose members were unaware of the treatment assignments adjudicated all efficacy endpoints and bleeding episodes.
Safety analyses included all randomized patients who received at least one dose of study drug and for whom post-dose data were available. Patients were censored at the first of the pre-specified Common Study End Date, withdrawal of consent, or the last clinical event assessment. Safety was analyzed as on-treatment including all events occurring after first dose and within 7 days after the last dose of study drug. […] Event rates are expressed as Kaplan-Meier estimates of cumulative incidence.

[3] = 60 mg bid (N = 6958), % of patients
[4] = 60 mg bid (N = 6958), listed as ticagrelor

CCCSc1nc(N[C@@H]2C[C@H]2c2ccc(F)c(F)c2)c2nnn([C@@H]3C[C@H](OCCO)[C@@H](O)[C@H]3O)c2n1 [Ticagrelor, (1S,2S,3R,5S)-3-[7-{[(1R,2S)-2-(3,4-difluorophenyl)cyclopropyl]amino}-5-(propylthio)-3H-[1,2,3]-triazolo[4,5-d]pyrimidin-3-yl]-5-(2-hydroxyethoxy)cyclopentane-1,2-diol]
major adverse cardiovascular events including cardiovascular death compared with clopidogrel 75 mg once daily ([1]; 90 mg twice daily added to aspirin for up to 1 year, acute coronary syndrome): reduced | effect on pulmonary function ([1]; PLATO substudy, 199 subjects, after one month or after at least 6 months of chronic treatment): no indication of an adverse effect on pulmonary function | reports of gout ([1]; PLATO, each treatment group): 0.6% | serum uric acid level increase from baseline ([1]; PLATO, ticagrelor 90 mg bid): approximately 0.6 mg/dL | Dyspnea, 3-year event rate ([2]; 60 mg bid): 15.8% | Fatal bleeding: ARI (%) ([2]; 60 mg bid): −0.01% | Hypotension ([2]; 60 mg bid): 0.66 events/100 pt years | ICH: ARI (%) ([2]; 60 mg bid): 0.14% | ICH: NNH ([2]; 60 mg bid): 714 | TIMI major bleeding: ARI (%) ([2]; 60 mg bid): 1.24% | TIMI major bleeding: NNH ([2]; 60 mg bid): 81 | frequency of death (including bleeding) ([2]; 60 mg bid): 4.2% | frequency of death, bleeding events excluded ([2]; 60 mg bid): 3.9% | median duration of resolved dyspnea adverse events ([2]; 60 mg bid): 31 days | patients with serum creatinine concentration increased by >50% ([2]; 60 mg bid): approximately 4% | syncope, patients reporting ([2]; 60 mg bid): 1.2% | Adverse event leading to death: (%) ([2]; 60 mg bid (N = 6958)): (2.1) % | Adverse event leading to death: n ([2]; 60 mg bid (N = 6958)): 149 | Adverse event leading to discontinuation of study drug: (%) ([2]; 60 mg bid (N = 6958)): (16.1) % | Adverse event leading to discontinuation of study drug: n ([2]; 60 mg bid (N = 6958)): 1117 | Any adverse event: (%) ([2]; 60 mg bid (N = 6958)): (75.7) % | Any adverse event: n ([2]; 60 mg bid (N = 6958)): 5268 | Any serious adverse event: (%) ([2]; 60 mg bid (N = 6958)): (21.5) % | Any serious adverse event: n ([2]; 60 mg bid (N = 6958)): 1499 | Bleeding leading to study drug discontinuation: 3-year Kaplan-Meier estimate ([2]; 60 mg bid (N = 6958)): (6.2) % | Bleeding leading to study drug discontinuation: n ([2]; 60 mg bid (N = 6958)): 355 | Bleeding requiring transfusion: 3-year Kaplan-Meier estimate ([2]; 60 mg bid (N = 6958)): (2.10) % | Bleeding requiring transfusion: n ([2]; 60 mg bid (N = 6958)): 105 | Bradyarrhythmia adverse event: (%) ([2]; 60 mg bid (N = 6958)): (1.7) % | Bradyarrhythmia adverse event: n ([2]; 60 mg bid (N = 6958)): 121 | Dyspnea AE: (%) ([2]; 60 mg bid (N = 6958)): (14.17) % | Dyspnea AE: n ([2]; 60 mg bid (N = 6958)): 986 | Dyspnea SAE: (%) ([2]; 60 mg bid (N = 6958)): (0.3) % | Dyspnea SAE: n ([2]; 60 mg bid (N = 6958)): 22 | Dyspnea leading to study drug discontinuation: (%) ([2]; 60 mg bid (N = 6958)): (4.3) % | Dyspnea leading to study drug discontinuation: n ([2]; 60 mg bid (N = 6958)): 296 | Fatal Bleeding: 3-year Kaplan-Meier estimate ([2]; 60 mg bid (N = 6958)): (0.25) % | Fatal Bleeding: n ([2]; 60 mg bid (N = 6958)): 11 | Fatal bleeding or non-fatal intracranial hemorrhage: 3-year Kaplan-Meier estimate ([2]; 60 mg bid (N = 6958)): (0.63) % | Fatal bleeding or non-fatal intracranial hemorrhage: n ([2]; 60 mg bid (N = 6958)): 32 | Fatal bleeding: (%) patients with event ([2]; 60 mg bid (N = 6958)): (0.2) % | Fatal bleeding: Events/100 pt yrs ([2]; 60 mg bid (N = 6958)): 0.08 Events/100 pt yrs | Gout adverse event: (%) ([2]; 60 mg bid (N = 6958)): (1.4) % | Gout adverse event: n ([2]; 60 mg bid (N = 6958)): 97 | Intracranial Hemorrhage: 3-year Kaplan-Meier estimate ([2]; 60 mg bid (N = 6958)): (0.61) % | Intracranial Hemorrhage: n ([2]; 60 mg bid (N = 6958)): 28 | Intracranial hemorrhage: (%) patients with event ([2]; 60 mg bid (N = 6958)): (0.4) % | Intracranial hemorrhage: Events/100 pt yrs ([2]; 60 mg bid (N = 6958)): 0.19 Events/100 pt yrs | Renal adverse event: (%) ([2]; 60 mg bid (N = 6958)): (2.5) % | Renal adverse event: n ([2]; 60 mg bid (N = 6958)): 173 | Serious adverse event leading to discontinuation of study drug: (%) ([2]; 60 mg bid (N = 6958)): (3.7) % | Serious adverse event leading to discontinuation of study drug: n ([2]; 60 mg bid (N = 6958)): 255 | TIMI Major bleeding: 3-year Kaplan-Meier estimate ([2]; 60 mg bid (N = 6958)): (2.30) % | TIMI Major bleeding: n ([2]; 60 mg bid (N = 6958)): 115 | TIMI Major or Minor: (%) patients with event ([2]; 60 mg bid (N = 6958)): (2.4) % | TIMI Major or Minor: Events/100 pt yrs ([2]; 60 mg bid (N = 6958)): 1.15 Events/100 pt yrs | TIMI Major or Minor: n patients with event ([2]; 60 mg bid (N = 6958)): 168 | TIMI Major: (%) patients with event ([2]; 60 mg bid (N = 6958)): (1.7) % | TIMI Major: Events/100 pt yrs ([2]; 60 mg bid (N = 6958)): 0.78 Events/100 pt yrs | TIMI Minor bleeding: 3-year Kaplan-Meier estimate ([2]; 60 mg bid (N = 6958)): (1.18) % | TIMI Minor bleeding: n ([2]; 60 mg bid (N = 6958)): 55 | Non-hemorrhagic adverse reaction: Diarrhea [2, 3]: 3.3% | Non-hemorrhagic adverse reaction: Dizziness [2, 3]: 4.5% | Non-hemorrhagic adverse reaction: Dyspnea [2, 3]: 14.2% | Bleeding leading to study drug discontinuation: 3-year Kaplan-Meier estimate [2, 4]: 6.2% | Bleeding requiring transfusion: 3-year Kaplan-Meier estimate [2, 4]: 2.1% | Dyspnea leading to study drug discontinuation: (%) [2, 4]: 4.3% | Fatal Bleeding: 3-year Kaplan-Meier estimate [2, 4]: 0.3% | Intracranial Hemorrhage: 3-year Kaplan-Meier estimate [2, 4]: 0.6% | TIMI Major bleeding: 3-year Kaplan-Meier estimate [2, 4]: 2.30% | Bleeding leading to study drug discontinuation: HR ([2]; 60 mg bid vs Placebo): 4.31 | Bleeding requiring transfusion: HR ([2]; 60 mg bid vs Placebo): 3.08 | Dyspnea AE: HR ([2]; 60 mg bid vs Placebo): 2.82 | Dyspnea SAE: HR ([2]; 60 mg bid vs Placebo): 2.91 | Dyspnea leading to study drug discontinuation: HR ([2]; 60 mg bid vs Placebo): 6.35 | Fatal Bleeding: HR ([2]; 60 mg bid vs Placebo): 1.00 | Fatal bleeding or non-fatal intracranial hemorrhage: HR ([2]; 60 mg bid vs Placebo): 1.22 | Intracranial Hemorrhage: HR ([2]; 60 mg bid vs Placebo): 1.33 | TIMI Major bleeding: HR ([2]; 60 mg bid vs Placebo): 2.32
